Among the data in ChEMBL document CHEMBL1137708, “3D-QSAR studies of boron-containing dipeptides as proteasome inhibitors with CoMFA and CoMSIA methods” (Eur J Med Chem, 2009) are pKi values, retold here.

A short description of the assay: Inhibition of SDS-activated 20S proteasome activity in rabbit muscle. The assay is classed as tissue-based, Oryctolagus cuniculus, Muscle tissue.

Consider `CC(=O)N[C@@H](Cc1cccnc1)C(=O)N[C@@H](CC(C)C)B(O)O`, for which the pKi came out at 8.27. With `CC(C)C[C@H](NC(=O)[C@H](Cc1cccnc1)NS(C)(=O)=O)B(O)O` the figure was 8.2; with `CC(C)C[C@H](NC(=O)[C@H](Cc1cccc2ccccc12)NS(C)(=O)=O)B1OCCNCCO1`, 9.55. `CC(C)C[C@H](NC(=O)[C@H](Cc1ccccc1)NC(=O)N1CCOCC1)B(O)O` came in with a negative logarithm of the Ki (pKi) of 9.09. With `CC(C)C[C@H](NC(=O)[C@H](CC(C)C)NC(=O)OCc1ccccc1)B(O)O` the figure was 8.52; with `Cc1ccc(S(=O)(=O)N[C@@H](Cc2cccc3ccccc23)C(=O)N[C@@H](CC(C)C)B(O)O)cc1`, 9.77; with `CC(C)C[C@H](NC(=O)[C@H](Cc1ccc(OCc2ccccn2)cc1)NC(=O)N1CCOCC1)B(O)O`, 9.7. With `CC(C)C[C@H](NC(=O)[C@H](Cc1ccccc1)NC(=O)c1cccnc1)B(O)O` the figure was 9.6. With `CC(C)C[C@H](NC(=O)[C@H](Cc1ccccn1)NC(=O)c1ccc2ccccc2n1)B(O)O` the figure was 8.85; with `CC(C)C[C@H](NC(=O)[C@H](Cc1ccccc1)NC(=O)c1ccccc1)B(O)O`, 9.82; with `CC(C)C[C@H](NC(=O)[C@H](Cc1ccccc1)NC(=O)c1cc[nH]c1)B(O)O`, 9.85. Compound `CC(C)C[C@H](NC(=O)[C@H](CC(C)C)N(C)C(=O)OCc1ccccc1)B(O)O` had a negative logarithm of the Ki (pKi) of 6.

On to `CC(C)C[C@H](NC(=O)[C@H](Cc1ccccc1)NC(=O)c1ccccn1)B(O)O`, for which the negative logarithm of the Ki (pKi) turned out to be 9.38. Under `CC(C)C[C@H](NC(=O)[C@H](Cc1ccccn1)NC(=O)c1cnccn1)B(O)O` stands 8.15; under `CC(C)C[C@H](NC(=O)[C@H](Cc1ccc(F)cc1)NC(=O)c1cnccn1)B(O)O`, 9.02; under `CC(C)C[C@H](NC(=O)[C@H](Cc1c[nH]cn1)NC(=O)OCc1ccccc1)B(O)O`, 7.6.

`CC(C)C[C@H](NC(=O)[C@@H](N)Cc1cccnc1)B(O)O`: the pKi came to 6.82. Under `CC(C)C[C@H](NC(=O)[C@H](Cc1c[nH]c2ccccc12)NS(C)(=O)=O)B(O)O` stands 8.24. With `CC(C)C[C@H](NC(=O)[C@H](Cc1cccc2ccccc12)NC(=O)c1cnc2ccccc2n1)B(O)O` the figure was 9.85; with `CB(C)[C@H](CC(C)C)NC(=O)[C@H](CCc1ccccc1)NC(=O)N1CCOCC1`, 8.66. As to `B[C@H](CC(C)C)NC(=O)[C@H](Cc1cccc2ccccc12)NC(=O)N1CCOCC1`, the negative logarithm of the Ki (pKi) was determined as 8.7.

For the compound `CC(C)C[C@H](NC(=O)[C@H](Cc1cccc2ccccc12)NC(=O)c1ccccc1)B(O)O`, the pKi was 10.06. With `CC(C)C[C@H](NC(=O)[C@H](Cc1c[nH]c2ccccc12)NC(=O)N1CCOCC1)B(O)O` the figure was 8.52. With `CC(C)C[C@H](NC(=O)[C@H](Cc1cccc2ccccc12)NC(=O)N1CCOCC1)B1OCCNCCO1` the figure was 9.82; with `CC(C)C[C@H](NC(=O)[C@H](Cc1ccccc1)NC(=O)c1ccc2ccccc2n1)B(O)O`, 9.72.

The compound `CC(C)C[C@H](NC(=O)[C@H](Cc1ccc2ccccc2n1)NC(=O)N1CCOCC1)B(O)O` registered a pKi of 8.66.

As to `CC(C)C[C@H](NC(=O)[C@H](Cc1ccccc1)NC(=O)NCc1ccccc1)B(O)O`, the pKi was 9.85. With `CC(C)C[C@H](NC(=O)[C@@H](N)Cc1ccccn1)B(O)O` the figure was 7.5; with `CC(C)C[C@H](NC(=O)[C@H](Cc1ccccn1)NC(=O)C1CCCCC1)B(O)O`, 8.96; with `CC(=O)N[C@@H](Cc1cccc2ccccc12)C(=O)N[C@@H](CC(C)C)B(O)O`, 9.77.

Compound `CC(C)C[C@H](NC(=O)[C@H](Cc1cccc2ccccc12)NC(=O)C1CCCCC1)B(O)O` displayed a pKi of 10.52. Compound `CN[C@@H](Cc1cccc2ccccc12)C(=O)N[C@@H](CC(C)C)B(O)O` came in with a pKi of 8.96.

The compound `CC(C)C[C@H](NC(=O)[C@H](Cc1ccccn1)NS(=O)(=O)c1cccc2cccnc12)B(O)O` gave a negative-log Ki (pKi) of 7.54. With `CC(C)C[C@H](NC(=O)[C@H](Cc1ccccc1)NC(=O)c1ccoc1)B(O)O` the figure was 9.77.

In turn, `CB(O)[C@H](CC(C)C)NC(=O)[C@H](Cc1cccc2ccccc12)NC(=O)N1CCOCC1` displayed a negative-log Ki (pKi) of 7. With `CB(C)[C@H](CC(C)C)NC(=O)[C@H](CCc1ccccc1)NC(=O)c1ccc2ccccc2n1` the figure was 8.55. With `CC(C)C[C@H](NC(=O)[C@@H](N)Cc1cccc2ccccc12)B(O)O` the figure was 8.12; with `CC(C)C[C@H](NC(=O)[C@H](Cc1ccc(O)cc1)NC(=O)N1CCOCC1)B(O)O`, 9.29. Under `CC(C)C[C@H](NC(=O)[C@H](Cc1cccnc1)NC(=O)N1CCOCC1)B(O)O` stands 8.89; under `CC(C)C[C@H](NC(=O)[C@H](Cc1cccc2ccccc12)NC(=O)c1ccc2ccccc2n1)B(O)O`, 10.12. With `CC(C)C[C@H](NC(=O)[C@H](Cc1ccccn1)NC(=O)c1ccccc1)B(O)O`, the negative logarithm of the Ki (pKi) is reported as 9.12.

`CC(C)C[C@H](NC(=O)[C@H](Cc1ccccc1)NS(=O)(=O)c1cccc2cccnc12)B(O)O` returned a pKi of 8.36. Under `CC(C)C[C@H](NC(=O)[C@H](Cc1ccccn1)NC(=O)N1CCOCC1)B(O)O` stands 8.2; under `CC(=O)N[C@@H](Cc1c[nH]c2ccccc12)C(=O)N[C@@H](CC(C)C)B(O)O`, 8.89; under `CC(C)C[C@H](NC(=O)[C@H](Cc1cccc2ccccc12)NC(=O)OCc1ccccc1)B(O)O`, 10.08. With `CC(C)C[C@H](NC(=O)[C@H](Cc1ccc2ncccc2c1)NC(=O)N1CCOCC1)B(O)O` the figure was 8.22; with `CC(C)C[C@H](NC(=O)[C@H](Cc1cccc2ccccc12)N(C)C(=O)OCc1ccccc1)B(O)O`, 9.02. As to `CC(C)C[C@H](NC(=O)[C@H](Cc1ccccc1)NC(=O)OCc1ccccc1)B(O)O`, the pKi is reported as 9.89. Compound `CB(C)[C@H](CC(C)C)NC(=O)[C@H](Cc1cccc2ccccc12)NC(=O)N1CCOCC1` had a negative-log Ki (pKi) of 6.19. With `CC(C)C[C@H](NC(=O)[C@H](Cc1ccc(OCc2ccccc2)cc1)NC(=O)N1CCOCC1)B(O)O` the figure was 9.64; with `CC(C)C[C@@H](NC(=O)[C@H](N)Cc1cccc2ccccc12)B(O)O.Cl` (single isomer, unassigned), 8.41.

`CC(C)CC(NC(=O)[C@H](Cc1cccc2ccccc12)NC(=O)N1CCOCC1)B(O)O` (single isomer, unassigned) gave a negative logarithm of the Ki (pKi) of 9.14.

For `CC(C)CC(NC(=O)[C@H](Cc1ccccc1)NC(=O)CCc1ccccc1)B(O)O` (single isomer, unassigned), the negative logarithm of the Ki (pKi) is reported as 9.82. Under `CC(C)CC(NC(=O)[C@H](Cc1ccc(F)cc1)NC(=O)c1ccccn1)B(O)O` (single isomer, unassigned) stands 9.08. For the compound `CC(C)CC(NC(=O)[C@H](Cc1cccc2ccccc12)NS(=O)(=O)c1cccc2cccnc12)B(O)O` (single isomer, unassigned), the negative-log Ki (pKi) was found to be 8.77.

`CC(C)CC(NC(=O)[C@H](Cc1cccc2ccccc12)NC(=O)OCc1ccccc1)B1O[C@@H]2[C@H]3C[C@@H](C[C@]2(C)O1)C3(C)C` (single isomer, unassigned) registered a negative-log Ki (pKi) of 10. With `CC(C)CC(NC(=O)C(CC(C)C)NC(=O)OCc1ccccc1)B1O[C@@H]2[C@H]3C[C@@H](C[C@]2(C)O1)C3(C)C` (single isomer, unassigned) the figure was 6.92; with `CC(C)C[C@H](NC(=O)[C@H](Cc1ccccc1)NC(=O)c1cnccn1)B(O)O` [BORTEZOMIB], 9.22.
